This is an account of results in patent EP1818058A2, “TREATMENT OF MMP-MEDIATED DERMATOLOGICAL DISEASES WITH PEMIROLAST” (Astion Pharma A/S, priority 2006, dated 2007).

The target of experiment [1] is T1, MMP-1 (Homo sapiens, UniProt P03956).
T1 construct: The methods employ Human rheumatoid synovial fibroblast (MMP-1); endogenous in cells; host or cells: Human rheumatoid synovial fibroblast
T1 sequence (P03956 100-469): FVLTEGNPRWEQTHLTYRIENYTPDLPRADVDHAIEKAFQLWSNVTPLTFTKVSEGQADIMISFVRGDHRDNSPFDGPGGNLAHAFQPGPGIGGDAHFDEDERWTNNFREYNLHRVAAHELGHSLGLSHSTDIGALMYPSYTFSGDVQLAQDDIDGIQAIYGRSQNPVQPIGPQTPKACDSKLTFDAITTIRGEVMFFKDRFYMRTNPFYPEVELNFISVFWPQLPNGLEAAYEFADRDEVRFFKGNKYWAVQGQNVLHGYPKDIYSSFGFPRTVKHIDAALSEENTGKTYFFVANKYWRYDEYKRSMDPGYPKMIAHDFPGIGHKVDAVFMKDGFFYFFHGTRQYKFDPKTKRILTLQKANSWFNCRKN
The experiment can be described thus: MMP enzyme assay (fluorogenic Mca peptide substrate, MDS Pharma Services). The experiment is classed as biochemical. To be noted: concentration giving 50 % inhibition; MMP-1 from Human rheumatoid synovial fibroblast; read-out: Concentration of Pemirolast. The protocol: (§1) The inhibitory effect of Pemirolast on human MMP's and cytokines were determined by enzyme assays carried out by MDS Pharma Services.
(§2) The inhibition of MMP's can be determined according to the test methods described by Knight CG, Willenbrock F, Murphy G (A novel coumarin-labelled peptide for sensitive continuous assays of the matrix metalloproteinases, FEBS Lett. 1992 Jan 27;296(3):263-6); Johnson LL, Dyer R, Hupe DJ (Matrix metalloproteinases, Curr Opin Chem Biol. 1998 Aug;2(4):466-71); and Olson MW, Gervasi DC, Mobashery S, Fridman R (Kinetic analysis of the binding of human matrix metalloproteinase-2 and -9 to tissue inhibitor of metalloproteinase (TIMP)-1 and TIMP-2, J Biol Chem. 1997 Nov 21;272(47):29975-83). The methods employ Human rheumatoid synovial fibroblast (MMP-1) and Human recombinant (MMP-2 and MMP-3) and Human recombinant (E.coli) (MMP-7) as the MMP source. The substrate is Mca-Pro-Leu-Gly-Leu-Dpa-Ala-Arg-NH2. The enzymatic reaction is based on the conversion of Mca-Pro-Leu-Gly-Leu-Dpa-Ala-Arg to Mca-Pro-Leu-Gly + Leu-Dpa-Ala-Arg-NH2, where Mca-Pro-Leu-Gly is quantified using spectrofluorimetric quantitation. As reference compounds are employed TIMP-1 and TIMP-2. Such methods are commercially available at MDS Pharma Services.

Experiment [2] has as its target T2, MMP-2 (Homo sapiens, UniProt P08253).
T2 sequence (P08253 110-660): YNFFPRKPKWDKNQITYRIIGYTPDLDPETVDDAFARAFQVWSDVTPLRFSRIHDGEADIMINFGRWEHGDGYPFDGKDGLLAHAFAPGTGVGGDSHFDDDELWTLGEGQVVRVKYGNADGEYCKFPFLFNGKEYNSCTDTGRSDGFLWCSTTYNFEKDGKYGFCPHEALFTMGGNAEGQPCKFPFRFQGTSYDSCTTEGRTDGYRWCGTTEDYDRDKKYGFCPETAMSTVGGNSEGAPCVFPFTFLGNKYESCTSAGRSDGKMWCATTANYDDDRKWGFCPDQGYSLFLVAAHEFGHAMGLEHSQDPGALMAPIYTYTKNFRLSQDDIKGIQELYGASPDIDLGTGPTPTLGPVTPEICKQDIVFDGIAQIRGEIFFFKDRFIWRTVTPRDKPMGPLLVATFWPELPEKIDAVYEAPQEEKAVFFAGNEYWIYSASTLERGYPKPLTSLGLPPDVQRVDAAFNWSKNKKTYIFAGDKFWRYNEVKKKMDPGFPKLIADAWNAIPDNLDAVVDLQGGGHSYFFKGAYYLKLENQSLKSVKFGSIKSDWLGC
The description is as above. The experiment is classed as biochemical. To be noted: concentration giving 50 % inhibition; Human recombinant MMP-2; read-out: Concentration of Pemirolast. The protocol: as §1, §2

Experiment [3] concerns the target MMP-3 (Homo sapiens, UniProt P08254). The description is as above. The experiment is classed as biochemical. To be noted: concentration giving 50 % inhibition; Human recombinant MMP-3; read-out: Concentration of Pemirolast. The protocol:
as §1, §2

For experiment [4], the target named is T3, MMP-7 (Homo sapiens, UniProt P09237).
T3 construct: host or cells: E. coli
T3 sequence (P09237 95-267): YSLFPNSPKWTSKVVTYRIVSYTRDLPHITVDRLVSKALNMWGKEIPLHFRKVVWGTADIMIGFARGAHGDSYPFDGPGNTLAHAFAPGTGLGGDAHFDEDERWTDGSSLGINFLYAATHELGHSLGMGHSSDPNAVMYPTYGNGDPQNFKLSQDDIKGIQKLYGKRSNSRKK
Described as above. The class given is biochemical. To be noted: concentration giving 50 % inhibition; Human recombinant (E.coli) MMP-7; read-out: Concentration of Pemirolast. The protocol:
as §1, §2

In experiment [5] the test system is IL-1α. The experiment can be described thus: Cytokine production, LPS induced human PBMC. To be noted: statement in words only, no value given. The class given is cell-based. The protocol: (§3) The inhibition of Pemirolast on cytokine production was determined using the assay "LPS induced human PBMC".
The subject of experiment [6] is TNF-α. The experiment can be described thus: Cytokine production, LPS induced human PBMC. To be noted: concentration giving 50 % inhibition, read-out: Concentration of Pemirolast. The class given is cell-based. The protocol: as §3
In experiment [7] the test system is arachidonic acid-induced ear-inflammation. The experiment can be described thus: Arachidonic acid-induced ear-inflammation test in mice. To be noted: intraperitoneally 30 minutes before arachidonic acid on the right ear. The class given is in vivo, female BALB/cA mice. The protocol: The anti-inflammatory potential of Pemirolast can be tested in "arachidonic acid-induced ear-inflammation test in mice", a commonly employed method for screening and evaluation of antiinflammatory drugs. Dexamethasone was employed as reference compound.
The study can be performed in female BALB/cA mice from M & B A/S, DK-8680 Ry. The test substances (various concentration of Pemirolast dissolved in aqueous solutions) and the reference compound are administered intraperitoneally in volumes of 20 ml per kg body weight 30 minutes before application of arachidonic acid to the ear. All groups are then treated with 20 µl arachidonic acid, 100 mg/ml in acetone, on the right ear. One hour after the application of arachidonic acid the mice are sacrificed, the ears cut from the tip with a punch biopsy knife (8 mm diameter) and weighed. Mean weights and standard deviations are calculated. Relative ear oedema is assessed as the weight difference between right and left ear of each mouse expressed as percent of the left ear. Percent inhibition of the relative ear oedema compared with the vehicle treated groups is calculated for the test substance and reference compound treated groups. […]

In experiment [8] the test system is acne vulgaris. Put plainly: Case of treatment of acne vulgaris. The experiment is classed as in vivo, person. From the text: A person was suffering from acne vulgaris characterised by comedones and some inflammatory lesions. They had previously regularly used a 5% benzoyl peroxide cream to treat the condition. During a flare up of the condition they applied a 5.0% aqueous solution of Pemirolast (potassium salt) once daily for four weeks to the areas affected. […] The treatment was followed and assessed by a physician.

Where [9] appears, read: person, 5.0% aqueous solution of Pemirolast (potassium salt) once daily for four weeks on affected areas.

Chain of MMP-3 (P08254 100-477): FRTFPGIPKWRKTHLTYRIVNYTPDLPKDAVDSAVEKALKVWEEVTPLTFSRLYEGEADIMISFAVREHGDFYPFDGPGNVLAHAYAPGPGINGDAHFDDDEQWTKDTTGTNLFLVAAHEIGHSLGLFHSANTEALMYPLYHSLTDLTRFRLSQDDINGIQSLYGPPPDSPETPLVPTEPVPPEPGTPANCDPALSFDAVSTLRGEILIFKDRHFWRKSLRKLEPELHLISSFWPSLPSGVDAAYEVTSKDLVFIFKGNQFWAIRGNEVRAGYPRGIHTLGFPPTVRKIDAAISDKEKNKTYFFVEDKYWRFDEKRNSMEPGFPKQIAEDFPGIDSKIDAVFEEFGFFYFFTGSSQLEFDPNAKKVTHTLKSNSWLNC

Regarding `Cc1cccn2c(=O)c(-c3nnn[nH]3)cnc12` [Pemirolast, 9-methyl-3-(1H-tetrazol-5-yl)-4H-pyrido[1,2-a]pyrimidin-4-one], the IC50 in experiment [1] turned out to be 18 µM; in experiment [2], 25 µM; in experiment [3] it was 32 µM; in experiment [4] it was 32 µM; in experiment [6], 100 µM. Moreover, the “inhibition of IL-1α” value in experiment [5] is recorded as “inhibits”. Further, the “inflammatory reaction in the arachidionic acid treated ear” value in experiment [7] is reported as “significantly prevented the inflammatory reaction”. Further, the “inflamed area surrounding the lesion” value in experiment [8] (setting [9]) was “recessed without any noticeable scarring”. Besides, the inflammatory lesions result in experiment [8] (setting [9]) is listed as “completely recessed”.

As to `O=C(OOC(=O)c1ccccc1)c1ccccc1` [benzoyl peroxide], the reddened inflamed area entry in experiment [8] (same patient, usual previous treatment with 5% benzoyl peroxide cream) is on record as “did not remove the reddened inflamed area”.
